Assays:
[1] = system: STAT5 Y694 phosphorylation; assay: HTRF experiment: STAT5 Y694 phosphorylation in Hela cells stimulated with human interferon beta; format: cell-based; conditions: 2 hours pretreatment, 10 nM human interferon beta 30 minutes
Protocol: Example of Effect 3: HTRF Experiment
Human Interferon 3 (IFN-0) (GenScript, Cat #P01574), STAT5 Y694 phosphorylation detection kit (STAT5 phospho-Y694 kit) (Cisbio; Cat #64AT5PEG).
Hela cells (ATCC American Standard Culture Center, CCL-2) were cultured in a 96-well plate at a density of 3×10^4 cells/well with DMEM medium containing 5% fetal bovine serum and maintained at 37° C. in a humidified incubator with 5% carbon dioxide overnight. On the second day, the original DMEM medium in the 96-well plate was sucked dry, and an equal volume of medium containing different concentrations of compounds (the mother liquor of the compound prepared by dimethyl sulfoxide was diluted in the medium at the required concentration) was added for pretreatment for 2 hours, and then it was placed in an incubator at 37° C. Then human interferon beta with a final concentration of 10 nM was added to stimulate, and it was gently shaken to mix well and then placed in an incubator at 37° C. for 30 minutes.
The medium was removed, an appropriate volume of PBS was added to wash, and then it was sucked dry. Then 40 microliters of 1× Lysis Buffer was added to each well and it was stood for 30 minutes at room temperature (1 ml 1× lysate preparation: 740 μl ddH2O was added to 250 μl 4× lysate and 10 μl Blocking reagent and it was mixed thoroughly). After 30 minutes, the cells were repeatedly blown until the lysis solution was not viscous (avoiding blowing out bubbles) to achieve sufficient lysis.
After overnight incubation, the signals of 665 nm and 620 nm were detected in a multifunctional microplate reader. The calculation formula for the detection of STAT5 Y694 phosphorylation is: Ratio=[(signal 665 nm)/(signal 620 nm)]×10^4. Treatment with dimethyl sulfoxide alone was the baseline control (Ratiobase), and the human interferon β stimulation without addition of the compound was the STAT5 Y694 full phosphorylation activation control (Ratiostimulation), the inhibition rate of STAT5 Y694 phosphorylation of different samples was normalized: Inhibition rate=[1−(RatioExperiment−Ratiobase)/(Ratiostimulation−Ratiobase)]*100.

[2] = system: STAT5 Y694 phosphorylation; assay: Protein electrophoresis and blotting of STAT5 Y694 phosphorylation in Jurkat cells stimulated with human interferon beta; format: cell-based; conditions: for Example of Effect 1: Inhibiting Ability (Protein Electrophoresis and Blotting): observed pSTAT5 bands at 10 μM and 100 μM; for Inhibiting Ratio (0% for vehicle control): 1 hour pretreatment, 20 ng/ml human interferon beta 30 minutes, pSTAT5/GAPDH
How it was run: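 Serum-free Jurkat cells pretreated with compound 1 h, then stimulated with 20 ng/ml human interferon beta for 30 min at 37° C. pSTAT5 measured by western blot with chemiluminescence, normalized to GAPDH and expressed as percent of DMSO control.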

Structure (SMILES) | Example of Effect 3: Inhibiting Ratio@10 μM (HTRF Experiment) [1] [%] | Example of Effect 1: Inhibiting Ability (Protein Electrophoresis and Blotting) [2] | Inhibiting Ratio (0% for vehicle control) ([2]; 1 μM) [%] | Inhibiting Ratio (0% for vehicle control) ([2]; 10 μM) [%] | Inhibiting Ratio (0% for vehicle control) ([2]; 100 μM) [%]
O=C(Cc1ccc(C(F)(F)F)cc1)N1CCC(n2c(=S)[nH]c3ccccc32)CC1 [GEN1-050, 1-(4-(2-thioxo-2,3-dihydro-1H-benzo[d]imidazol-1-yl)piperidin-1-yl)-2-(4-(trifluoromethyl)phenyl)ethanone] | 15.28 | + |  |  | 
O=C(C[C@H]1CC[C@@H](C(F)(F)F)CC1)N1CCC(n2c(=O)[nH]c3ccccc32)CC1 [GEN1-107, (Cis)-1-(1-(2-(4-(trifluoromethyl)cyclohexyl)acetyl)piperidin-4-yl)-1H-benzo[d]imidazol-2(3H)-one] | 37.09 | + |  |  | 
CC(C)(C)c1ccc(CC(=O)N2CCC(n3c(=O)[nH]c4ccccc43)CC2)cc1 [GEN1-031, 1-(1-(2-(4-(tert-butyl)phenyl)acetyl)piperidin-4-yl)-1H-benzo[d]imidazole-2(3H)-one] | 0.13 | + | 19.7 | 38.1 | 98.7
O=C(/N=c1\[nH]c2cccc(C(F)(F)F)c2n1C1CCN(C(=O)Cc2ccc3ncccc3c2)CC1)c1ccccc1 [GEN1-172] | 13.83 | − |  |  | 
O=C1CN(C2CCN(C(=O)Cc3ccc(C(F)(F)F)cc3)CC2)c2ccccc2N1 [GEN1-052, 4-(1-(2-(4-(trifluoromethyl)phenyl)acetyl)piperidin-4-yl)-3,4-dihydroquinoxaline-2(1H)-one] | 8.83 | + |  |  | 
Cc1[nH]c(=O)n(C2CCN(C(=O)Cc3ccc(C(F)(F)F)cc3)CC2)c1-c1ccccc1 [GEN1-166, 4-methyl-5-phenyl-1-(1-(2-(4-(trifluoromethyl)phenyl)acetyl)piperidin-4-yl)-1H-imidazole-2(3H)-one] | 15.16 | + |  |  | 
O=C(C(=O)N1CCC(n2c(=O)[nH]c3cccc(C(F)(F)F)c32)CC1)c1ccc(C(F)(F)F)cc1 [GEN1-160, 1-(4-(2-oxo-7-(trifluoromethyl)-2,3-dihydro-1H-benzo[d]imidazol-1-yl)piperidin-1-yl)-2-(4-(trifluoromethyl)phenyl)1,2-dione] | 10.27 | + |  |  | 
O=C(Cc1c[nH]c2ccccc12)N1CCC(n2c(=O)[nH]c3cccc(C(F)(F)F)c32)CC1 [GEN1-169] | 13.47 | + |  |  | 
O=C(Cc1ccc(Cl)cc1)N1CCC(n2c(=O)[nH]c3cccc(C(F)(F)F)c32)CC1 [GEN1-156, 1-(1-(2-(4-chlorophenyl)acetyl)piperidin-4-yl)-7-(trifluoromethyl)-1H-benzo[d]imidazol-2(3H)-one] | 47.04 | + |  |  | 
Nc1nc2ccccc2n1C1CCN(C(=O)Cc2ccc(C(F)(F)F)cc2)CC1 [GEN1-055, 1-(4-(2-amino-1H-benzo[d]imidazol-1-yl)piperidin-1-yl)-2-(4-(trifluoromethyl)phenyl)ethanone] | 16.88 | + | 25.0 | 50.0 | 89.6

Reference: patent publication US20230099441A1, “HETEROCYCLIC COMPOUND, APPLICATION THEREOF, AND COMPOSITION CONTAINING SAME” (GenEros Biopharma Ltd., priority 2019, published 2023)
